In general, inhibition in vivo refers to the share of the control response that was lost under treatment.

The nature of data set [1]: (§1) Neurotoxicity in ip dosed Mus musculus (mouse) after 4 hr by rotorod test. The settings on record: in vivo. The class given is toxicity, organism-based. A general note: The rotarod test checks motor coordination on a turning rod.
The subject of data set [2] is Mus musculus. In words: Anticonvulsant activity in Mus musculus (mouse) assessed as protection against maximal electroshock-induced seizure at 300 mg/kg, ip measured after 4 hr. The format is functional, organism-based. Also on record: dose 300 mg/kg.
The nature of data set [3]: (§2) Neurotoxicity in ip dosed Mus musculus (mouse) after 0.5 hr by rotorod test. The format is toxicity, organism-based. The settings on record: in vivo.
The test system of another data set is Rattus norvegicus. In words: CNS depressant activity in Rattus norvegicus Wistar (rat) assessed as immobility time at 100 mg/kg, ip measured after 60 min by forced swim test (reference value: 45.6 +/- 19.45 to 180.97 +/- 14.15 sec). The settings on record: route intraperitoneal. The class given is functional.
Data set [4] concerns Mus musculus. In words: Anticonvulsant activity in Mus musculus (mouse) assessed as protection against subcutaneous pentyleneterazole-induced seizure at 300 mg/kg, ip measured after 4 hr. The class given is functional, organism-based. Also on record: dose 300 mg/kg.
Data set [5] concerns Mus musculus. The experiment in a line: Anticonvulsant activity in Mus musculus (mouse) assessed as protection against subcutaneous pentyleneterazole-induced seizure at 300 mg/kg, ip measured after 0.5 hr. The format is functional, organism-based. Also on record: dose 300 mg/kg.
Data set [6] concerns Mus musculus. The experiment in a line: Sedative-hypnotic activity in Mus musculus (mouse) assessed as inhibition of locomotory activity at 100 mg/kg, ip measured after 1 hr by actophotometer test. The format is functional. The note with it: route intraperitoneal.
Data set [7] deals with Mus musculus. In words: Anticonvulsant activity in Mus musculus (mouse) assessed as protection against maximal electroshock-induced seizure at 300 mg/kg, ip measured after 0.5 hr. The format is functional, organism-based. Also on record: dose 300 mg/kg. (In general: The maximal electroshock test induces tonic seizures with an electrical stimulus.)
The subject of data set [8] is Mus musculus. The description is as §2. The settings on record: in vivo, 0.5 h. The format is toxicity, organism-based.
Data set [9] concerns Mus musculus. The experiment in a line: Anticonvulsant activity in ip dosed Mus musculus (mouse) assessed as protection against subcutaneous pentyleneterazole-induced seizure measured after 4 hr. The class given is functional. The note with it: read-out: MED.
Data set [10] deals with Mus musculus. The data set is described as §1. The settings on record: in vivo, 4 h. The format is toxicity, organism-based.
In data set [11] the test system is Mus musculus. The experiment in a line: Anticonvulsant activity in ip dosed Mus musculus (mouse) assessed as protection against subcutaneous pentyleneterazole-induced seizure measured after 0.5 hr. The class given is functional. The note with it: read-out: MED.
Data set [12] relates to Mus musculus. In words: Anticonvulsant activity in ip dosed Mus musculus (mouse) assessed as protection against maximal electroshock-induced seizure measured after 4 hr. The settings on record: read-out: MED. The class given is functional.
In data set [13] the test system is Mus musculus. The experiment in a line: Anticonvulsant activity in ip dosed Mus musculus (mouse) assessed as protection against maximal electroshock-induced seizure measured after 0.5 hr. The format is functional. The settings on record: read-out: MED.

Molecules are shown by their SMILES. The source made the active and inactive calls. No cut-off for these calls is given here.

As for `Cc1nc2ccccc2c(=O)n1NC(=O)Nc1ccc([N+](=O)[O-])cc1`, in data set [1], the MTD at 4 h is 300 mg/kg. Further, the result in the data set with Mus musculus [2], with Mus musculus [4], in the data set with Mus musculus [5] and in the data set with Mus musculus [7] was inactive. The MTD at 0.5 h in data set [3] turned out to be 300 mg/kg. Besides, the Time in the data set with Rattus norvegicus is 190.29 s. Further, the inhibition in vivo at 100 mg/kg with Mus musculus [6] is 40%.

On to `Cc1nc2ccccc2c(=O)n1NC(=O)Nc1ccccc1`, for which, in data set [1], the MTD at 4 h was 300 mg/kg. Besides, the result in the data set with Mus musculus [2], with Mus musculus [4], in the data set with Mus musculus [5] and in the data set on Mus musculus [7] was inactive. In the data set with Mus musculus [8], this compound showed an MTC of 300 mg/kg. Moreover, the Time in the data set with Rattus norvegicus was determined as 130.56 s. Also, the inhibition in vivo at 100 mg/kg in the data set on Mus musculus [6] turned out to be 50%.

On to `NC(=O)N1c2ccccc2C=Cc2ccccc21` [CARBAMAZEPINE], for which the minimal effective dose in the data set on Mus musculus [9] is 300 mg/kg; in the data set with Mus musculus [11], 100 mg/kg; in the data set with Mus musculus [12] it was 100 mg/kg; in the data set on Mus musculus [13], 30 mg/kg. Also, the MTC in the data set on Mus musculus [10] was determined as 300 mg/kg; with Mus musculus [8] it was 100 mg/kg. The Time with Rattus norvegicus was determined as 240.3 s.

As for `Cc1nc2ccccc2c(=O)n1NC(=O)Nc1ccc(Br)cc1`, in data set [1], the MTD at 4 h worked out at 300 mg/kg. The result in the data set on Mus musculus [2] and in the data set on Mus musculus [4] was inactive. This compound also had an MTC in the data set with Mus musculus [8] of 300 mg/kg. Moreover, the minimal effective dose in the data set on Mus musculus [11] and in the data set on Mus musculus [13] was 300 mg/kg throughout. Besides, in the data set on Rattus norvegicus, the Time is recorded as 70.63 s. Moreover, the inhibition in vivo at 100 mg/kg in the data set on Mus musculus [6] is 51%.

Turning to `Cc1nc2ccccc2c(=O)n1NC(=O)Nc1ccc(I)cc1`, the MTD at 4 h in data set [1] stood at 300 mg/kg. Besides, the result in the data set on Mus musculus [2], in the data set on Mus musculus [4], in the data set with Mus musculus [5] and in the data set on Mus musculus [7] was inactive. This compound showed an MTD at 0.5 h in data set [3] of 300 mg/kg. Also, the Time in the data set with Rattus norvegicus worked out at 194.05 s. Also, the inhibition in vivo at 100 mg/kg with Mus musculus [6] was 53%.

On to `Cc1nc2ccccc2c(=O)n1NC(=O)Nc1ccc(Cl)cc1`, for which the MTC in the data set on Mus musculus [10] and in the data set on Mus musculus [8] was 300 mg/kg each time. Besides, the result in the data set with Mus musculus [2] and in the data set on Mus musculus [4] was inactive. For the same compound, the minimal effective dose with Mus musculus [11] and in the data set on Mus musculus [13] was 300 mg/kg throughout. Also, in the data set on Rattus norvegicus, the Time came out at 204.7 s. The inhibition in vivo at 100 mg/kg in the data set with Mus musculus [6] is 48%.

`Cc1nc2ccccc2c(=O)n1NC(=O)Nc1ccc(F)cc1`: the MTD at 4 h in data set [1] came to 300 mg/kg. For the same compound, the result with Mus musculus [2], in the data set on Mus musculus [4], in the data set with Mus musculus [5] and in the data set with Mus musculus [7] was inactive. Moreover, the MTD at 0.5 h in [3] came out at 300 mg/kg. For the same compound, the Time in the data set on Rattus norvegicus is given as 188.16 s. For the same compound, the inhibition in vivo at 100 mg/kg with Mus musculus [6] turned out to be 45%.

Turning to `COc1ccc(NC(=O)Nn2c(C)nc3ccccc3c2=O)cc1`, the MTD at 4 h in [1] is 300 mg/kg. The result with Mus musculus [2], with Mus musculus [4], in the data set on Mus musculus [5] and with Mus musculus [7] was inactive. Moreover, the MTD at 0.5 h in data set [3] stood at 300 mg/kg. Also, the Time in the data set on Rattus norvegicus is listed as 202.29 s. Also, in the data set with Mus musculus [6], the inhibition in vivo at 100 mg/kg is 42%.

In data set [1], `Cc1cccc(NC(=O)Nn2c(C)nc3ccccc3c2=O)c1` came in with an MTD at 4 h of 300 mg/kg. Further, the result in the data set with Mus musculus [2], in the data set with Mus musculus [4], with Mus musculus [5] and in the data set on Mus musculus [7] was inactive. Besides, the MTD at 0.5 h in [3] is 300 mg/kg. For the same compound, in the data set on Rattus norvegicus, the Time came to 218.29 s. In addition, the inhibition in vivo at 100 mg/kg in the data set with Mus musculus [6] turned out to be 51%.

In the case of `CCOc1ccc(NC(=O)Nn2c(C)nc3ccccc3c2=O)cc1`, the MTC in the data set with Mus musculus [10] and with Mus musculus [8] was 300 mg/kg each time. Besides, the result in the data set on Mus musculus [2], with Mus musculus [4], with Mus musculus [5] and in the data set with Mus musculus [7] was inactive. Moreover, in the data set with Rattus norvegicus, the Time worked out at 198.29 s. In addition, in the data set with Mus musculus [6], the inhibition in vivo at 100 mg/kg is 45%.

In [1], `CCc1ccc(NC(=O)Nn2c(C)nc3ccccc3c2=O)cc1` gave an MTD at 4 h of 300 mg/kg. Further, in data set [3], the MTD at 0.5 h worked out at 300 mg/kg. Further, the minimal effective dose in the data set on Mus musculus [11], with Mus musculus [12] and with Mus musculus [13] was 300 mg/kg throughout. Also, the Time in the data set with Rattus norvegicus came to 208.29 s. In the data set with Mus musculus [4], the result was inactive. Also, the inhibition in vivo at 100 mg/kg with Mus musculus [6] worked out at 53%.

`O=C1NC(=O)C(c2ccccc2)(c2ccccc2)N1` [PHENYTOIN]: the MTC in the data set with Mus musculus [10] and in the data set on Mus musculus [8] was 100 mg/kg in each case. In addition, the result with Mus musculus [4] and in the data set with Mus musculus [5] was inactive. Also, the minimal effective dose in the data set on Mus musculus [12] and in the data set with Mus musculus [13] was 30 mg/kg each time. The inhibition in vivo at 100 mg/kg with Mus musculus [6] came to 70%.

For the compound `Cc1ccc(NC(=O)Nn2c(C)nc3ccccc3c2=O)cc1`, the MTD at 4 h in [1] turned out to be 300 mg/kg. Further, the outcome in the data set with Mus musculus [2], in the data set with Mus musculus [4], with Mus musculus [5] and in the data set with Mus musculus [7] was inactive. In addition, the MTD at 0.5 h in data set [3] is 300 mg/kg. For the same compound, the Time in the data set on Rattus norvegicus is 210.29 s. Moreover, the inhibition in vivo at 100 mg/kg in the data set with Mus musculus [6] came to 52%.

On to `CCC1(C)CC(=O)NC1=O` (stereo unspecified) [ETHOSUXIMIDE], for which the outcome in the data set with Mus musculus [2], with Mus musculus [4] and in the data set with Mus musculus [7] was inactive. Further, the minimal effective dose with Mus musculus [11] worked out at 300 mg/kg.

Take `CCC1(c2ccccc2)C(=O)NC(=O)NC1=O` [PHENOBARBITAL]: the minimal effective dose in the data set with Mus musculus [9] was 300 mg/kg; with Mus musculus [11], 30 mg/kg; in the data set on Mus musculus [12], 30 mg/kg; in the data set on Mus musculus [13], 100 mg/kg. The MTC in the data set on Mus musculus [10] was 300 mg/kg; in the data set on Mus musculus [8], 100 mg/kg.

Regarding `CCCC(CCC)C(=O)[O-].[Na+]` [VALPROATE SODIUM], the MTD at 4 h in data set [1] was found to be 300 mg/kg. Also, the result in the data set with Mus musculus [2], in the data set with Mus musculus [4] and in the data set with Mus musculus [7] was inactive. In data set [3], the MTD at 0.5 h amounted to 300 mg/kg. The minimal effective dose in the data set on Mus musculus [11] is 300 mg/kg.

On to `Cc1ccccc1NC(=O)Nn1c(C)nc2ccccc2c1=O`, for which, in data set [1], the MTD at 4 h was 300 mg/kg. Also, the outcome in the data set with Mus musculus [2], in the data set on Mus musculus [4], with Mus musculus [5] and in the data set with Mus musculus [7] was inactive. The compound also returned an MTD at 0.5 h in [3] of 300 mg/kg. Besides, the Time in the data set with Rattus norvegicus was determined as 226.29 s. Also, the inhibition in vivo at 100 mg/kg in the data set with Mus musculus [6] is 51%.
